Experimental findings from ChEMBL document CHEMBL1157284, “Role of glutamate and dopamine receptors in the psychopharmacological profile of the indole alkaloid psychollatine” (2006) are described below.

The structures appear in SMILES notation. The source made the active and inactive calls. The calls are words filed in the database; no cut-off is given here.

For assay [1], the system named is Mus musculus. Briefly: Protective effect against amphetamine-induced lethality in mouse at 4 mg/kg, ip administered 30 mins prior to amphetamine challenge measured after 24 hrs. The format is functional, organism-based. Also on record: dose 4 mg/kg.
The subject of assay [2] is Mus musculus. Briefly: Anticonvulsant activity against NMDA-induced seizures in mouse assessed as seizure latency at 0.3 mg/kg, ip administered 30 mins prior to NMDA challenge. To be noted: route intraperitoneal. It counts as functional.
In assay [3] the test system is Mus musculus. Briefly: Inhibition of apomorphine-induced climbing behavior in mouse at 0.2 mg/kg, ip administered 30 mins prior to apomorphine challenge. The format is functional, organism-based. Further details: dose 0.2 mg/kg.
The test system of assay [4] is Mus musculus. In words: Protective effect against amphetamine-induced lethality in mouse at 30 mg/kg, ip administered 30 mins prior to amphetamine challenge measured after 24 hrs. It counts as functional, organism-based. Further details: dose 30 mg/kg.
In assay [5] the test system is Mus musculus. Briefly: Decrease in spontaneous locomotor activity in mouse at 100 mg/kg. Further details: dose 100 mg/kg. The format is functional, organism-based.
Assay [6] relates to Mus musculus. In words: Protective effect against amphetamine-induced lethality in mouse at 3 mg/kg, ip administered 30 mins prior to amphetamine challenge measured after 24 hrs. It counts as functional, organism-based. Further details: dose 3 mg/kg.
The subject of assay [7] is Mus musculus. In words: Protective effect against amphetamine-induced lethality in mouse at 10 mg/kg, ip administered 30 mins prior to amphetamine challenge measured after 24 hrs. The format is functional, organism-based. Further details: dose 10 mg/kg.
For assay [8], the system named is Mus musculus. Briefly: Anticonvulsant activity against NMDA-induced seizures in mouse assessed as seizure latency at 50 mg/kg, ip administered 30 mins prior to NMDA challenge. It counts as functional. To be noted: route intraperitoneal.
The test system of assay [9] is Mus musculus. In words: Anticonvulsant activity against NMDA-induced seizures in mouse assessed as seizure latency at 100 mg/kg, ip administered 30 mins prior to NMDA challenge. The format is functional. The settings on record: route intraperitoneal.
The subject of assay [10] is Mus musculus. Briefly: Antipsychotic activity against MK-801-induced hyperlocomotion in mouse at 7.5 mg/kg administered 30 mins prior to MK-801 challenge measured after 30 mins. The format is functional, organism-based. Further details: dose 7.5 mg/kg.
Assay [11] concerns Mus musculus. In words: Antipsychotic activity against MK-801-induced hyperlocomotion in mouse at 100 mg/kg administered 30 mins prior to MK-801 challenge measured after 30 mins. The format is functional, organism-based. Further details: dose 100 mg/kg.
In assay [12] the test system is Mus musculus. In words: Protective effect against amphetamine-induced lethality in mouse at 100 mg/kg, ip administered 30 mins prior to amphetamine challenge measured after 24 hrs. The format is functional, organism-based. Also on record: dose 100 mg/kg.
In assay [13] the test system is Mus musculus. Briefly: Antipsychotic activity against MK-801-induced hyperlocomotion in mouse at 10 mg/kg administered 30 mins prior to MK-801 challenge measured after 30 mins. It counts as functional, organism-based. Further details: dose 10 mg/kg.
The test system of assay [14] is Mus musculus. In words: Inhibition of apomorphine-induced climbing behavior in mouse at 10 mg/kg, ip administered 30 mins prior to apomorphine challenge. The format is functional, organism-based. Further details: dose 10 mg/kg.
Assay [15] relates to Mus musculus. In words: Decrease in spontaneous locomotor activity in mouse at 7.5 mg/kg. The format is functional, organism-based. Further details: dose 7.5 mg/kg.
The test system of assay [16] is Mus musculus. In words: Decrease in spontaneous locomotor activity in mouse at 10 mg/kg. Also on record: dose 10 mg/kg. The format is functional, organism-based.
Assay [17] concerns Mus musculus. In words: Anticonvulsant activity against NMDA-induced seizures in mouse assessed as seizure latency at 75 mg/kg, ip administered 30 mins prior to NMDA challenge. It counts as functional. The settings on record: route intraperitoneal.

For the compound `CN(C)CCCN1c2ccccc2Sc2ccc(Cl)cc21`, the result in assay [1] was Active.

As for `CN1C(=O)CN=C(c2ccccc2)c2cc(Cl)ccc21`, the result in [1] was inactive.

As for `C[C@]12N[C@H](Cc3ccccc31)c1ccccc12.O=C(O)/C=C\C(=O)O` [DIZOCILPINE MALEATE], in [2], the Activity was determined as 360 s. Further, the outcome in [3] was Active.

Turning to `COC(=O)C1=CO[C@@H](O[C@H]2O[C@H](CO)[C@@H](O)[C@H](O)[C@H]2O)[C@@H]2C([C@@H]3NCCc4c3[nH]c3ccccc43)=CC[C@H]12` [PSYCHOLLATINE], the result in assay [4], in assay [12], in assay [15] and in assay [16] was inactive. Moreover, the outcome in assay [5], in assay [6], in assay [7], in assay [10], in assay [11] and in [13] was Active. Further, the result in assay [14] was Active. The Activity in [8] is 850 s; in assay [9], 857.14 s; in [17], 1020 s.
